From patent US20070275925A1, “ASTHMA DIAGNOSIS AND THERAPY” (REGENTS OF THE UNIVERSITY OF CALIFORNIA, priority 2006, published 2007)

Test system: primary human airway epithelial cells
Experiment: IL-13 stimulation of airway epithelial cells in vitro, real time RT-PCR
Type: cell-based
Settings: IL-13 10 ng/mL, up to 4 days
Description: To confirm that airway epithelial cells are a source of serpinB2 and periostin and that these genes may be induced by cytokines relevant to asthma, we stimulated primary human airway epithelial cells in vitro with IL-13 (0.1 to 10 ng) for up to 4 days (methods in supplementary appendix).
Human primary bronchial airway epithelial cells were purchased (Clonetics—Cambrex Bio Science, Walkersville Md.) and grown as described by Gray et al.^7 Cells were purchased at passage 1 and expanded in T25 flasks until they reached 80% confluency at which time they were passaged onto 6.5 mm Transwell permeable supports at a density of 132,000 cells/filter. The cells were grown submerged in Gray's medium until approximately day 7 to 9 at which point an air-liquid interface was established. Cells became fully differentiated (ciliated and mucous producing) as determined by transepithelial voltage and resistance after 2-3 weeks on the filters. Cells were exposed to the recombinant human IL-13 (R&D Systems, Minneapolis Minn.) for up to four days at concentrations ranging from 0.1 ng/ml to 10 ng/ml. Filters were cut from the support and submerged in RLT lysis buffer (Qiagen Inc, Valencia Calif.) and stored at −80° C. before analysis of gene expression by real time RT-PCR.

IL-13: recombinant human IL-13 (R&D Systems) used to stimulate airway epithelial cells
Epithelial gene expression of periostin: large increases | Epithelial gene expression of serpinB2: large increases
